Test results: PMC4923153, “Protection of Primary Dopaminergic Midbrain Neurons by GPR139 Agonists Supports Different Mechanisms of MPP^+ and Rotenone Toxicity” (Frontiers in Cellular Neuroscience, 2016)

Experiments:
[1] = test system: primary DA midbrain neurons; assay: Protection of primary DA midbrain neurons against 6-OHDA toxicity (TH-positive neuron count); type: cell-based, mice; conditions: 1 μM agonist 1 h, 0-50 μM 6-OHDA 24 h
Protocol: Experiments were conducted in accordance with the ethical guidelines of H. Lundbeck A/S and the Danish legislation of animal use for scientific procedures. Cell culture was basically performed as described (Nagel et al., [2008]), with few modifications. […] Plates were stored at 4°C until tyrosine-hydroxylase-positive (TH-positive) neurons were counted using a Thermo Scientific Cellomics® ArrayScan® VTI HCS Reader. […] To ensure that only healthy primary cultures were assessed, we furthermore excluded experiments with total cell counts below Mean minus standard deviation (SD) of the summarized experiments. […]
Neuronal midbrain cultures were pretreated with 1 μM of either one of the agonists compound 1 ( [drawing 9] ), compound 2 ( [drawing 10] ), or compound 3 ( [drawing 11] ), or vehicle ( [drawing 12] ) for 1 h, followed by treatment with the indicated concentrations of 6-hydroxydopamine (6-OHDA) for 24 h. TH-positive neurons were counted and normalized to control numbers.

[2] = test system: primary DA midbrain neurons; assay: Protection of primary DA midbrain neurons against MPP+ toxicity (TH-positive neuron count); type: cell-based, mice; conditions: 1 μM MPP+ 24 h
Protocol: Experiments were conducted in accordance with the ethical guidelines of H. Lundbeck A/S and the Danish legislation of animal use for scientific procedures. Cell culture was basically performed as described (Nagel et al., [2008]), with few modifications. Briefly, the mesencephalon floor was dissected from embryonic day (E) 13 mice, tissue pieces collected in HBBS, transferred to 0.1% trypsin, 0.05% DNAse (Sigma-Aldrich DN25–1G) and incubated at 37°C in a humidified atmosphere with 5% CO2 for 20 min; washed in DNAse, homogenized and centrifuged at 200× g, resuspended in medium (DMEM (Gibco 41965–039), 10% FCS, 1% P/S (Gibco, 15140–122), l.5% HEPES (Gibco, 15630–056), 1% Sodium Pyruvate (Gibco, 11360–039)) and plated on poly-L-lysine coated 96-well dishes. The medium was switched to neurobasal medium after 90 min (neurobasal (Gibco 21103–049) with 1% P/S, 2% B27 (Gibco, 17504–044), 1.25% 0.5 mM L-glutamine (Gibco, 25030–024)). After 6 days in vitro (DIV), cultures were treated with 1 μM of three different GPR139 agonists and in some experiments, concomitantly, with 10 μM of the antagonist for1 h, before exposing them to 0–1 μM MPP^+, 0–50 μM 6-OHDA or 0–100 nM rotenone for 24 h. For the MPP^+ treated cultures, it was also tested whether the effect of the GPR139 agonists could be blocked by concomitantly applying 10 μM GPR139 antagonist (IC50 3 μM). Subsequently, cells were fixed in 4% PFA/PBS for 10 min, washed with PBS, incubated in 0.5% BSA/0.1% Triton-X/5% porcine serum for 20 min, and incubated for 24 h in rabbit anti-tyrosine hydroxylase antibodies (1:1000 in PBS, Millipore AB152); washed 2 × 5 min in PBS. Secondary antibodies (Alexa 488 rabbit) were applied 1:200 in PBS with 0.2 μg/ml Hoechst dye for 1 h and washed 2 × 5 min in PBS. One drop of DAKO fluorescent mounting medium were applied into each well. Plates were stored at 4°C until tyrosine-hydroxylase-positive (TH-positive) neurons were counted using a Thermo Scientific Cellomics® ArrayScan® VTI HCS Reader. Results were normalized against control condition and compared. Experiments were only included in the evaluation if at least 30% cell death was induced at the highest toxin concentration compared to non-treated control wells. To ensure that only healthy primary cultures were assessed, we furthermore excluded experiments with total cell counts below Mean minus standard deviation (SD) of the summarized experiments. […]
To examine whether GPR139 agonists protect against toxin-induced DA cell death, we first treated cultured DA midbrain neurons with the GPR139 agonists and MPP^+ . Subsequently, we determined survival of TH-positive neurons.
Figure 8 Three different GPR139 surrogate agonists protect primary dopaminergic (DA) midbrain neurons against 1-methyl-4-phenyl-pyridinium ionMPP^+ toxicity. […] TH-positive neurons were counted and normalized to numbers under control conditions. […] Each data point is calculated from 12 (0 μM and 1 μM MPP^+ concentrations); 4 (0.125 μM); 7 (0.25 μM); or 8 (0.5 μM) independent measurements.
Primary midbrain cultures were pretreated with the indicated amount of GPR139 agonist compound 3 and with either vehicle ( [drawing 5] ), or 1 μM MPP^+ ( [drawing 6] ); or MPP^+ with 10 μM of the antagonist compound 4 ( [drawing 7] ), or with the antagonist compound 4 alone ( [drawing 8] ). The number of TH-positive neurons was determined 24 h later and normalized to control conditions. […]

Structure (SMILES): CN(C)C1CCN(C(=O)CNC(=O)Cc2cccc3ccccc23)C1 (stereo not drawn) [compound 2, N-[2-(3-Dimethylamino-pyrrolidin-1-yl)-2-oxo-ethyl]-2-Naphthalen-1-yl-acetamide]
- protection against 6-OHDA toxicity [1]: do not protect
- protection against MPP+ toxicity ([2]; 1 μM agonist 1 h, p ≤ 0.05 vs vehicle): significant
- cells killed by 1 μM MPP+ that were rescued ([2]; 1 μM compound pre-incubation 1 h, TH-positive neurons): 40.5%
